Data reported in patent publication US8901307B2, “Chemical compounds 251” (AstraZeneca AB, priority 2008, dated 2014).
Counter-ions that a name gives are not always drawn.

Experiments:
human His-PIM1 [2-313] = target: T1, human His-PIM1 [2-313] (Homo sapiens, UniProt P11309); experiment: PIM1 in-vitro mobility shift assay (Caliper LC3000, FL-Ahx-Bad phosphorylation); type: biochemical; settings: 1.5 h; percent inhibition at 0.3 uM compound; read-out: PIM1 % I at 0.3 uM
T1 construct: purified human His-PIM1 [2-313] enzyme; His (N); purchased University of Dundee, Scotland; host or cells: baculovirus system
In short: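 Compound preincubated 20 min at 25 °C with 2.4 nM PIM1, 3.6 µM FL-Ahx-Bad peptide and 240 µM ATP (1.2× mix concentrations). Reaction started with 24 mM MgCl2 mix, run 90 min at 25 °C, EDTA-stopped. Phospho/unphospho peptide separated by microfluidic mobility shift; percent inhibition from ratiometric turnover.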

human His-PIM2 [23-299] = target: T2, human His-PIM2 [23-299] (Homo sapiens, UniProt Q9P1W9); experiment: PIM2 in-vitro mobility shift assay (Caliper LC3000, FL-Ahx-Bad phosphorylation); type: biochemical; settings: 1.5 h; percent inhibition at 0.3 uM compound; read-out: PIM2 % I at 0.3 uM
T2 construct: purified human His-PIM2 [23-299] enzyme; His (N); host or cells: E. coli
T2 sequence (Q9P1W9 23-299): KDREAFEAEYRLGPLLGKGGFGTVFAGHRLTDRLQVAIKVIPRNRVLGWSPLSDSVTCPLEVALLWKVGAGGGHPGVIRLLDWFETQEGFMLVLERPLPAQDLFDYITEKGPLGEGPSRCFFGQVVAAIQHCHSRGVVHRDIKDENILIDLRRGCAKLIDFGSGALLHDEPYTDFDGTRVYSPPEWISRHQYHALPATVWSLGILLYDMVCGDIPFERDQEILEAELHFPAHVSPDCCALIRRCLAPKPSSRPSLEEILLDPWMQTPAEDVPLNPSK

T1 sequence (P11309 2-313): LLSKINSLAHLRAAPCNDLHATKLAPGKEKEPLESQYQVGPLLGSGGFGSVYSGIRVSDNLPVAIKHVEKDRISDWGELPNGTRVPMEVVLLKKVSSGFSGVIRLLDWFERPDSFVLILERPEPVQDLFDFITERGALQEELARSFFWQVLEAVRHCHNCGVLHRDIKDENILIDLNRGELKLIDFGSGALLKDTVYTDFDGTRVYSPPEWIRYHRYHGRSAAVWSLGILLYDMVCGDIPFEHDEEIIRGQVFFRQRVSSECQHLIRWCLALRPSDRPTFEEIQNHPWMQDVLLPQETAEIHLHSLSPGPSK

Row | SMILES | inhibition at 0.3 µM (human His-PIM1 [2-313]) [%] | inhibition at 0.3 µM (human His-PIM2 [23-299]) [%]
1 | Cn1nnc2cc(/C=C3\SC(=O)NC3=O)ccc21 [Example 73, (5Z)-5-[(1-methyl-1H-1,2,3-benzotriazol-5-yl)methylene]-1,3-thiazolidine-2,4-dione] | < 5 | < 5
2 | N[C@H]1CCN(c2c(Cl)cccc2/C=C2\SC(=O)NC2=O)C1 [Example 86, (S,Z)-5-(2-(3-aminopyrrolidin-1-yl)-3-chlorobenzylidene)thiazolidine-2,4-dione hydrochloride] | > 95 | > 95
3 | Cn1ccc2ccc(/C=C3\SC(=O)NC3=O)cc21 [Example 75, (5Z)-5-[(1-methyl-1H-indol-6-yl)methylene]-1,3-thiazolidine-2,4-dione] | > 95 | 69.5
4 | O=C1NC(=O)/C(=C/c2cccc(Cl)c2N2CCNCC2)S1 [Example 98, (Z)-5-(3-chloro-2-(piperazin-1-yl)benzylidene)thiazolidine-2,4-dione hydrochloride] | > 95 | 81.4
5 | CN(C)C1CCN(c2c(Cl)cc(C(F)(F)F)cc2/C=C2\SC(=O)NC2=O)CC1 [Example 24] | > 95 | 44.3
6 | O=C1NC(=O)/C(=C/c2ccc3ncccc3c2)S1 [Example 77, (5Z)-5-(quinolin-6-ylmethylene)-1,3-thiazolidine-2,4-dione trifluoroacetate] | 51.2 | 22.7
7 | COc1cc(/C=C2\SC(=O)NC2=O)c(N2CCCC2)cc1OC [Example 46, (5Z)-5-(4,5-dimethoxy-2-pyrrolidin-1-ylbenzylidene)-1,3-thiazolidine-2,4-dione] | 13.4 | 15.7
8 | O=C1NC(=O)/C(=C/c2cccc(Cl)c2N2CCC[C@@H](NCCC(F)(F)F)C2)S1 [Example 149] | > 95 | 75.4
9 | C[C@@H]1CN(c2ccc(C(F)(F)F)cc2/C=C2\SC(=O)NC2=O)C[C@H](C)N1 [Example 34, (Z)-5-(2-((3S,5R)-3,5-dimethylpiperazin-1-yl)-5-(trifluoromethyl)benzylidene)thiazolidine-2,4-dione hydrochloride] | > 95 | 39.3
10 | COc1cc(/C=C2\SC(=O)NC2=O)c(N2CCC(CN)C2)cc1OC (centres unmarked) [Example 99, (Z)-5-(2-(3-(aminomethyl)pyrrolidin-1-yl)-4,5-dimethoxybenzylidene)thiazolidine-2,4-dione hydrochloride] | > 95 | > 95
11 | COc1cc(/C=C2\SC(=O)NC2=O)c(N2CCC(N(C)C)C2)cc1OC (centres unmarked) [Example 52, (5Z)-5-{2-[4-(dimethylamino)pyrrolidin-1-yl]-4,5-dimethoxybenzylidene}-1,3-thiazolidine-2,4-dione] | > 95 | 93.5
12 | CNCCN1CCN(c2ccccc2/C=C2\SC(=O)NC2=O)CC1 [Example 114, (Z)-5-(2-(4-(2-(methylamino)ethyl)piperazin-1-yl)benzylidene)thiazolidine-2,4-dione hydrochloride] | > 95 | > 95

The remaining lines, values ahead:

Row | inhibition at 0.3 µM (human His-PIM1 [2-313]) [%] | inhibition at 0.3 µM (human His-PIM2 [23-299]) [%] | SMILES
13 | > 95 | > 95 | CCOc1cccc(/C=C2\SC(=O)NC2=O)c1N1CCC[C@@H](N)C1 [Example 122I, (R,Z)-5-(2-(3-aminopiperidin-1-yl)-3-ethoxybenzylidene)thiazolidine-2,4-dione hydrochloride]
14 | > 95 | > 95 | COCCOc1cccc(/C=C2\SC(=O)NC2=O)c1N1CCC[C@@H](N)C1 [Example 122AA, (R,Z)-5-(2-(3-aminopiperidin-1-yl)-3-(2-methoxyethoxy)benzylidene)thiazolidine-2,4-dione hydrochloride]
15 | 11.7 | 6.1 | CN1CCN(Cc2cccc(/C=C3\SC(=O)NC3=O)c2)CC1 [Example 84E, (Z)-5-(3-((4-methylpiperazin-1-yl)methyl)benzylidene)thiazolidine-2,4-dione]
16 | 27.1 | < 5 | COc1cc(/C=C2\SC(=O)NC2=O)c(N2CCC(NC(C)=O)C2)cc1OC (centres unmarked) [Example 131A]
17 | > 95 | 92.1 | N[C@@H]1CCN(c2c(Cl)cccc2/C=C2\SC(=O)NC2=O)C1 [Example 122G, (R,Z)-5-(2-(3-aminopyrrolidin-1-yl)-3-chlorobenzylidene)thiazolidin-2,4-dione hydrochloride]
18 | 92.8 | 81.4 | CN(C)[C@H]1CCN(c2c(F)cccc2C=C2SC(=O)NC2=O)C1 [Example 84N, (S)-5-(2-(3-(dimethylamino)pyrrolidin-1-yl)-3-fluorobenzylidene)thiazolidine-2,4-dione]
19 | > 95 | 89.6 | NCc1ccc(CN[C@@H]2CCCN(c3c(Cl)cccc3/C=C3\SC(=O)NC3=O)C2)cc1 [Example 122R, (R,Z)-5-(2-(3-(4-(aminomethyl)benzylamino)piperidin-1-yl)-3-chlorobenzylidene)thiazolidine-2,4-dione hydrochloride]
20 | > 95 | > 95 | N[C@@H]1CCCN(c2c(/C=C3\SC(=O)NC3=O)cccc2OCC2CCCCC2)C1 [Example 122K, (R,Z)-5-(2-(3-aminopiperidin-1-yl)-3-(cyclohexylmethoxy)benzylidene)thiazolidine-2,4-dione hydrochloride]
21 | > 95 | > 95 | CNCCN[C@@H]1CCCN(c2c(Cl)cccc2/C=C2\SC(=O)NC2=O)C1 [Example 122S, (R,Z)-5-(3-chloro-2-(3-(2-(methylamino)ethylamino)piperidin-1-yl)benzylidene)thiazolidine-2,4-dione hydrochloride]
22 | > 95 | > 95 | N[C@@H]1CCCN(c2c(/C=C3\SC(=O)NC3=O)cccc2OC2CCCC2)C1 [Example 122AC, (R,Z)-5-(2-(3-aminopiperidin-1-yl)-3-(cyclopentyloxy)benzylidene)thiazolidine-2,4-dione hydrochloride]
